# Reference: patent US11129782B2, “Derivatives of PPD useful for coloring hair and skin” (National University of Singapore, priority 2017, dated 2021)
# Several values for one entry are separate records, joined by “and”; a condition that tells them apart may be missing. Equal entries are not always repeated.
# Tests used:
# [1] = Skin permeation in vertical Franz diffusion cells; type: in vitro ADME, porcine; settings: 8 h; for recovery at 8 h, 1 % w/v: pig, read-out: % Parent compound Recovery (mean); for Penetration profile PPD vs derivatives (times less than PPD): ratio of PPD penetration to that of the compound
# Experimental: Porcine ears were generously provided by the NUS Department of Surgery. The ears were frozen at −80° C. until use (up to 3 months) and thawed at room temperature on the day preceding the experiment. Prior to the experiment, the skin was separated from the cartilage and dermatomed to a thickness of ˜1.0 mm using an Acculan™ 3Ti dermatome (Aesculap, Inc., B. Braun, USA).
# The PPD and derivatives were dissolved in deionized water at 1% w/v. The PPD and PPD derivatives 1-5 solutions were purged with argon gas to minimize oxidation of the donor solution.
# Skin penetration studies were carried out using vertical Franz diffusion cells (PermeGear, USA) immersed in a 37° C. water bath. The donor and receptor volumes were 900 µL and 5 mL, respectively; the mean surface area of penetration was 0.64 cm^2. Upon insertion of the skin pieces into the Franz cells, the skin was equilibrated for 45 min with PBS in the receptor compartment. After equilibration, the skin's trans-epidermal water loss (TEWL) was measured using an Aquaflux AF300 (Biox, UK) to assess the integrity of the skin's stratum corneum barrier. The donor solution, consisting of PPD or derivative 1-5 (n=3 Franz cells each), was then added to the donor compartment and the penetration experiments were conducted for 8 h. The receptor solutions were continuously stirred with magnetic stirrers. At fixed time points, aliquots of 200 μL were taken from the receptor solution of each cell and the receptor solution topped up with 200 μL of fresh PBS. At the end of the experiment, the donor and receptor solutions were removed and the cells dismantled. For the purpose of mass balance on the PPD, PPD derivatives 1-5 the skin pieces and swabs of their outer surfaces were collected and stored in acetonitrile for PPD or derivative 1-5 extraction. The donor solution as well as PBS used to thoroughly wash each part of the Franz cells were also collected.
# PPD, PPD derivatives 1-5 and metabolite concentrations in all permeation and mass balance samples were measured by LCMS. PPD steady state fluxes and permeability coefficients were calculated by fitting the solution to Fick's second law of diffusion at the steady state to the linear part of each experimental cumulative amount curve.
# The validated method LCMS was applied to quantify PPD, PPD derivative 1-5 and metabolites from skin permeation study samples. FIGS. 3 and 4 show LCMS spectra for the identification of PPD and PPD derivatives 1 and 2 and metabolites from skin permeation study experiment.
# [2] = test system: HaCaT cells; assay: In vitro cell cytotoxicity (MTT) assay on HaCaT cells; type: cell-based, human; settings: for IC50: 72 h incubation, MTT
# From the text: HaCaT (human, adult, low calcium, high temperature, human adult skin keratinocytes) cells were obtained from the IMB (Institute of Medical Biology) Skin Cell Bank. Fetal bovine serum (FBS), Dulbecco's minimum essential medium (DMEM) and trypsin EDTA solution were purchased from GE healthcare life sciences, Utah. Penicillin/streptomycin, dimethyl sulfoxide (DMSO), and phosphate buffered saline (PBS) were from Fisher Scientific (Singapore). Para-phenylenediamine (PPD) was purchased from Sigma Aldrich (Singapore). PPD analogues such as Dimer, trimer, ethyl hexyl para-phenylenediamine (EHPPD), hexyl para-phenylenediamine (HPPD), Bandrowski base (BB) were synthesized in house.
# Cell viability was essentially determined using the MTT assay as described in the literature. The HaCaT cells were grown in DMEM with 10% FBS and 1% penicillin/streptomycin. The cells in T-75 cm^2 culture flasks were incubated with 5% CO2 at 37° C. in a humidified incubator. The HaCaT cells were grown to expected confluency and then they were harvested by trypsinizing the cell with 0.25% trypsin/EDTA and incubated at 37° C. for 5 min to obtain the complete cell detachment. After the incubation, cell pellets were resuspended, and washed twice with 1×PBS. The cell suspension in 1×PBS was counted and adjusted to 1×10^5/mL. A HaCaT keratinocyte suspension (100 μL in 1×PBS) with a cell concentration of 1×10^5 cells/mL) and a test solution (100 μL in milli-Q water) were combined in each well of two 96-well plates. Test solutions with a desired concentration were prepared by serial dilutions of the stock solutions with 1×PBS.
# For the cytotoxicity experiment, cells were seeded at a density of 5×10^3 in 200 ul of medium into each well of 96-well plates. Cells were seeded as three sets of four replicates for each concentration. After 24 h of incubation, the cells were washed with PBS and cultured for 72 h with 200 ul of 10% FBS containing DMEM medium, together with the different concentrations of the test compounds ranging from 500 μM to 1.9 μM for PPD and analogues 1-5 and standard in a serial dilution. Then the medium was removed and 100 μl of MTT [3-(4,5-dimethylthiazol-2yl)-2,5-diphenyl-2H-tetrazolium bromide](1 mg/ml) (Alfa Aesar, Singapore) in PBS was added. At the end of 4 h incubation, the plates were removed from the incubator and plates were shaken for 5 min. The absorbance at 570 nm was determined using Bio-Tek plate reader. The cell viability rates were calculated from absorbance readings and represented as percentages of control value (untreated cells).
# [3] = test system: cysteine peptide (Ac-RFAACAA-COOH); assay: Direct Peptide Reactivity Assay, cysteine peptide; settings: for % of Cysteine depletion, Avg / % of Cysteine depletion, Rep 2 / % of Cysteine depletion, Rep 3 / Reactivity Class: 1:10; for % of Cysteine depletion, Rep 1: peptide 0.02 mM : test chemical 0.2 mM (1:10); for Reactivity Class: cysteine
# Experimental: For cysteine DPRA, an additional step was performed.
# (§1) The mass spectrometric analysis was performed by use of a AB SCIEX QTRAP 5500 tandem mass spectrometry (MS/MS) system (AB SCIEX, Framingham, Mass., USA) operating in triple quadrupole positive mode (ESI+) equipped with an AB Sciex Turbo Ion Spray interface. Acquisition and analysis of data were performed with Analyst software ver. 1.6.2 (Applied Biosystems).
# [4] = test system: lysine peptide (Ac-RFAAKAA-COOH); assay: Direct Peptide Reactivity Assay, lysine peptide; settings: for % of Lysine depletion, Avg / % of Lysine depletion, Rep 2 / % of Lysine depletion, Rep 3 / Reactivity Class: 1:50; for % of Lysine depletion, Rep 1: peptide 0.02 mM : test chemical 1 mM (1:50); for Reactivity Class: lysine
# Experimental: as §1
# [5] = test system: ILT3; assay: ILT3 surface expression on THP-1 by flow cytometry; type: cell-based, human; settings: in comparison to DCNB
# Experimental: (§2) For cytokine profiling in THP-1, supernatants from wells were collected and then used for cytokine analysis by a Chemokine immunosorbent assay Bio-legend ELISA Max kit. The levels of available IL-8 protein from THP-1 cell supernatants was estimated using this kit which are regulated upon activation of THP-1 model. Surface receptor expression of human CD-86, CD-54, MHC-I and IL-T3 were analyzed by flow cytometry using standard BD FACS analyzer with PE and FITC fluorescent labeled antibodies from Biolegend and e Bioscience.
# (§3) In order to understand the effect of modified PPD hairdyes on THP-1 immune sensitization, a certain degree of Cytotoxicity at CV75% viable where 25% cell death is required before evaluation of supernatants in THP-1 models for expression of cytokine IL-8 and receptor expression of CD86, CD54, MHC-I and IL-T3 surface receptors upon treatment with standard PPD and modified hair dye compounds. Most allergens show a specific dose-dependent alteration of CD86 and/or CD54 expression or secretion of cytokine profiles. But depending on chemical, the alteration pattern may vary.
# [6] = test system: cysteine and lysine peptides; assay: Direct Peptide Reactivity Assay, mean of cysteine and lysine depletion (FIG. 12); settings: for Sensitizing potential predicted from mean peptide depletion: cysteine 1:10 / lysine 1:50 model
# [7] = test system: IL-8; assay: IL-8 ELISA on THP-1 cell supernatants; type: cell-based, human; settings: preliminary ELISA, CV75
# Experimental: as §2, §3
Compound,% Parent compound Penetrated (mean) ([1]; 1% W/V applied) [%],% converted to metabolite (mean) ([1]; 1% W/V applied) [%],"recovery at 8 h, 1 % w/v ([1]; 1% W/V applied) [%]",Reactivity Class ([3]; 24 h),"IC50 ([2]; Homo sapiens, HaCaT, 72 h) [µM]","% of Cysteine depletion, Avg ([3]; 20 min) [%]","% of Cysteine depletion, Rep 2 ([3]; 20 min) [%]","% of Cysteine depletion, Rep 3 ([3]; 20 min) [%]","% of Cysteine depletion, Rep 1 ([3]; 20 min) [%]","% of Cysteine depletion, Avg ([3]; 24 h) [%]","% of Cysteine depletion, Rep 2 ([3]; 24 h) [%]","% of Cysteine depletion, Rep 3 ([3]; 24 h) [%]","% of Cysteine depletion, Rep 1 ([3]; 24 h) [%]","% of Lysine depletion, Avg ([4]; 20 min) [%]","% of Lysine depletion, Rep 2 ([4]; 20 min) [%]","% of Lysine depletion, Rep 3 ([4]; 20 min) [%]","% of Lysine depletion, Rep 1 ([4]; 20 min) [%]","% of Lysine depletion, Avg ([4]; 24 h) [%]","% of Lysine depletion, Rep 2 ([4]; 24 h) [%]",Sensitizing potential predicted from mean peptide depletion [6],also measured
"O=[N+]([O-])c1ccc(Cl)c([N+](=O)[O-])c1 [DNCB, reference compound]",,,,,,,,,,,,,,,,,,,,,IL-8 expression [7]: increased expression
"COCc1cc(N)ccc1N [MEPPD, 2-(methoxymethyl)benzene-1,4,-diamine, reference compound]",0.02,0.019,,,,,,,,,,,,,,,,,,strong sensitizer,"% Parent compound Recovery (mean) ([1]; 1% W/V applied): 95.39%; Penetration profile PPD vs derivatives (times less than PPD) [1]: 8 and 8.1; Penetration profile PPD vs derivatives (times less than PPD) ([1]; listed as ME-PPD): about 7.5; Fold increase in IC50 compared to PPD [2]: 19 fold; IC50 [2]: 544 µM; IL-8 expression [7]: increased expression; ILT3 (inhibitory receptor) expression [5]: increased; Mean peptide depletion ([6]; mean of cysteine (1:10) and lysine (1:50), FIG. 12): 53.2%"
"CCCCC(CC)COc1cc(N)ccc1N (centres unmarked) [PPD derivative 3, 2-((2-ethylhexyl)oxy)benzene-1,4-diamine]",0.00045,0.0123,94.5,Moderate,31,31.9,32,31.4,32.4,32.7,31.7,31.8,34.8,6.2,5.63,7.89,5.07,15.48,19.7,moderate sensitizer,"Penetration profile PPD vs derivatives (times less than PPD) ([1]; listed as PPD 3): 360; Reactivity Class ([3]; 20 min, listed as Derivative 3): Moderate; Reactivity Class ([3]; 20 min, listed as derivative 3): moderate; % of Lysine depletion, Rep 3 ([4]; 24 h): 13.8%; % of Lysine depletion, Rep 1 ([4]; 24 h): 12.8%; Reactivity Class ([4]; 20 min): No or Minimal; Reactivity Class ([4]; 24 h): Low"

# Further lines, with some results ahead:
% Parent compound Penetrated (mean) ([1]; 1% W/V applied) [%],% converted to metabolite (mean) ([1]; 1% W/V applied) [%],"recovery at 8 h, 1 % w/v ([1]; 1% W/V applied) [%]",Reactivity Class ([3]; 24 h),Compound,"IC50 ([2]; Homo sapiens, HaCaT, 72 h) [µM]","% of Cysteine depletion, Avg ([3]; 20 min) [%]","% of Cysteine depletion, Rep 2 ([3]; 20 min) [%]","% of Cysteine depletion, Rep 3 ([3]; 20 min) [%]","% of Cysteine depletion, Rep 1 ([3]; 20 min) [%]","% of Cysteine depletion, Avg ([3]; 24 h) [%]","% of Cysteine depletion, Rep 2 ([3]; 24 h) [%]","% of Cysteine depletion, Rep 3 ([3]; 24 h) [%]","% of Cysteine depletion, Rep 1 ([3]; 24 h) [%]","% of Lysine depletion, Avg ([4]; 20 min) [%]","% of Lysine depletion, Rep 2 ([4]; 20 min) [%]","% of Lysine depletion, Rep 3 ([4]; 20 min) [%]","% of Lysine depletion, Rep 1 ([4]; 20 min) [%]","% of Lysine depletion, Avg ([4]; 24 h) [%]","% of Lysine depletion, Rep 2 ([4]; 24 h) [%]",Sensitizing potential predicted from mean peptide depletion [6],also measured
0.00173,0.008,96.4,High,"Nc1ccc(Nc2ccc(Nc3ccc(N)cc3)cc2)cc1 [PPD derivative 2, N^1,N^4-bis(4-aminophenyl)-1,4-benzenediamine]",4.14,54.0,53.6,52.6,55.6,64.1,65.6,61.2,65.6,11.2,11.8,11.8,10.1,9.08,9.79,high sensitizing agents,"Penetration profile PPD vs derivatives (times less than PPD) ([1]; listed as PPD 2): 93 and 93.6; Fold increase in cytotoxicity compared to PPD 1 [2]: 6 fold; Reactivity Class ([3]; 20 min): High; % of Lysine depletion, Rep 3 ([4]; 24 h): 8.28%; % of Lysine depletion, Rep 1 ([4]; 24 h): 8.97%; Reactivity Class ([4]; 20 min): Low; Reactivity Class ([4]; 24 h): Low; ILT3 (inhibitory receptor) expression [5]: increased"
0.000322,0.0121,94.3,Moderate,"CCCCCCOc1cc(N)ccc1N [PPD derivative 4, 2-hexyloxy-1,4-diaminobenzene]",34.8,32.8,31.8,33.8,30.8,40.8,41,41.5,40,1.1,0.845,1.41,1.13,13.4,15,moderate sensitizer,"Penetration profile PPD vs derivatives (times less than PPD) ([1]; listed as PPD 4): 503.1; IC50 [2]: 34.8 µM; Reactivity Class ([3]; 20 min, listed as Derivative 4): Moderate; Reactivity Class ([3]; 20 min, listed as derivative 4): moderate; % of Lysine depletion, Rep 3 ([4]; 24 h): 13.9%; % of Lysine depletion, Rep 1 ([4]; 24 h): 11.3%; Reactivity Class ([4]; 20 min): No or Minimal; Reactivity Class ([4]; 24 h): Low"
